Test results from patent US20260071252A1, “REVERSIBLE NANOPARTICLE AGGREGATES AND METHODS FOR DETECTING PROTEASES” (The Regents of the University of California, priority 2022, published 2026).
Where no end group is shown, it is not given here.

Experiments:
[1] = Dissociation of Arg-Arg-AuNPs assemblies with HS-PEGs (UV-Vis percentage of dissociation, MANTA size)
Text: Dissociation of the AuNPs assemblies. […] HS-PEG6-OCH3 was chosen because its grafting on AuNPs ensure a high colloidal stability of these latter. Indeed, the grafting of thiolated PEGs has been widely reported in the literature via the formation of a strong Au—S bond conferring to the particles a high colloidal stability due to a combination of hydrophilicity and steric hindrance.^30-32 The Au—S bond being stronger than the arginine-citrate, arginine-gold or even citrate-gold interactions, […] was expected to be capable of progressively replacing the arginine/citrate layers at the gold surface, disrupting the electrostatic network, and eventually dispersing the AuNPs (Scheme 1). Briefly, aqueous suspensions Arg-Arg-AuNPs assemblies were exposed to increasing concentrations of HS-PEG6-OCH3, and the dissociation of the assemblies was characterized by TEM, MANTA, FTIR and UV-Vis spectroscopies (FIG. 2).
The presence of a PEG layer around the AuNPs explains the difference in the hydrodynamic diameter versus the initial AuNPs-citrate (48±32 nm vs 40±25 nm). Remarkably, the LSPR band of the dissociated AuNPs was identical to the AuNPs-citrate: The color of the sample returned to its initial bright red color. […] For the remainder of this study, the efficiency of the dissociation will be characterized by the percentage of dissociation (%) as measured by UV-Vis spectroscopy (comparison between the LSPR band after dissociation versus that from AuNPs-citrate). See the experimental section in the supporting information for more details. […] This finding is particularly interesting because the typical grafting density of HS-PEG6-OCH3 on dispersed AuNPs is reported to be between 3.5 and 4 HS-PEG6-OCH3/nm^2.^33 This implies that no excess of HS-PEGs was needed to dissociate the entire assembly-only enough to cover all the gold surface. It is worth noting that the kinetics of the dissociation was almost instantaneous (equilibrium reached within a minute) (FIG. 14). A video of the dissociation of the AuNPs assemblies is available online.
Dissociation. Stock solutions of the different HS-PEGs with concentrations ranging from 10 μM to 1 mM were prepared. Specific volumes of each solution were added to a 96-well plate in order to reach the desired final HS-PEGs concentration and then 100 μL of Arg-Arg-AuNPs were added. For complex matrices experiments, the Arg-Arg-AuNPs were first concentrated 10 times by centrifugation and then dispersed in complex media (sea water, pooled human saliva, plasma, urine, bile or HEK cell lysates) that represented thus 90% of the total volume except for bile, which was only 20%. Quickly after the addition of AuNPs, the dissociation of the assembly was monitored and the ratio of the absorbances at 520 nm and 700 nm was recorded over time. The percentage of dissociation is described as follows:
The optical absorption measurements were collected using a hybrid multi-mode microplate reader (Synergy™ H1 model, BioTek Instruments, Inc.) in a 96-well plate. The dissociation of assembly was characterized by measuring the ratio of the absorbance at 520 nm or 530 nm and 700 nm or 820 nm for 20 nm NPs or 40 nm NPs, respectively.
The multispectral advanced nanoparticle tracking analysis (MANTA) is a technique that builds images from the particles' light scattering via three lasers of different wavelengths (for example, blue, green, and red); the wavelength of scattering depends on nanoparticle size. Thus, small particles (less than, or <, 100 nm) appear blue while larger particles appear greener or redder. MANTA uses these images to count the nanoparticles and calculate their size based on Brownian motion. […] 3000™ (Horiba Scientific, USA). The temperature was set to 25° C. during the measurement. Automated noise analysis determines the optimal wavelength for representing each nanoparticle. Here, 8-bit composite videos were generated, and 10 videos were used per analysis (300 frames for seconds).

[2] = Dissociation efficiency of HS-PEG6-OCH3 for alternative assembly conditions or coating ligands; conditions: high concentration (>100 μM) of HS-PEG6-OCH3
Description: First, peptide-free conditions were used to promote the assembly of AuNPs-citrate and its dissociation with HS-PEG6-OCH3 was evaluated (FIG. 3A). Here, salts were added to AuNPs-citrate to induce aggregation via disruption of the electrostatic repulsion forces between the particles. […] Unlike the peptide Arg-Arg, these ions cannot sterically prevent the AuNPs from falling in an irreversible aggregated state.
AuNPs with different coating ligands were also evaluated and compared to citrate: bis(p-sulfonatophenyl)phenylphosphine (BSPP), mercaptobenzoic acid (MBA), or thiolated PEG-COOH (HS-PEG-COOH; Mw=634 g·mol^−1). […] This is because MBA and HS-PEG-COOH make covalent Au—S bonds with the gold surface that prevent subsequent grafting of HS-PEG6-OCH3.
Finally, an alternative control peptide was used for assembly (Cys-Arg-Lys).

[3] = target: SARS-CoV-2 main protease (Mpro) (Severe acute respiratory syndrome coronavirus 2, UniProt P0DTD1)
[4] = Dissociation of AgNP aggregates by A18 fragments released by Mpro cleavage; conditions: AgNPs 20 nm, color from blue to yellow
HS-PEG-RRK conjugate = test system: T1, HS-PEG-RRK conjugate
T1 sequence: RRK

HS-PEG-TSG conjugate = test system: T2, HS-PEG-TSG conjugate
T2 sequence: TSG

[5] = test system: T3, HS-PEG-RRKRRKRRK conjugate
T3 sequence: RRKRRKRRK

HS-PEG-RRKRRK conjugate = test system: T4, HS-PEG-RRKRRK conjugate
T4 sequence: RRKRRK

trypsin = assay: Trypsin sensing with HS-PEG-peptide conjugates and Arg-Arg-AuNPs assemblies; assay type: biochemical
Description: Peptides containing the motif Arg-Arg-Lys (RRK) were thus conjugated to a thiolated PEG capped with a carboxyl group (HS-PEG12-COOH, Mw=634 Da) via EDC/NHS cross-linking reaction. Three peptides based on the motif RRK were investigated and the number of RRK repetitions varied from 1 to 3 to increase the mass and charge of the resulting HS-PEG-peptide conjugate (FIG. 6A).
From concentrations of 10 μM, HS-PEG12-COOH is capable to dissociate 100% of the assemblies (FIG. 21). However, the conjugation of the peptides to the HS-PEG12-COOH was expected to decrease its capacity to dissociate the assemblies as it increases its size and charge. In this context, the addition of the HS-PEG-peptide conjugates to AuNPs assemblies could not generate a colorimetric signal. However, in the presence of trypsin, the proteolytic cleavage could progressively remove the amino acids residues from the conjugate, thus reducing its size and charge that would restore the dissociation capacity. A colorimetric signal, proportional to the trypsin activity, could thus be observed (FIG. 6B).
Typically, 1 mL of HS-PEG12-COOH (HS—(CH2CH2O)12—CH2CH2COOH, 634 Da, 1 mM) dissolved in MES buffer (10 mM, pH=5.5) was activated via the addition of 100 μL of EDC (50 mM, MES) and 40 μL of NHS (500 mM, MES). The reaction was stirred at room temperature for one hour. After one hour, 1 mL of peptide (or NH2-molecule) (1 mM) dissolved in PBS (100 mM, pH=7.4) was added to the activated HS-PEG12-COOH. The reaction was stirred for 4 hours at room temperature and then stored at 4° C.
Typically, 5 μL of the PEG-peptide conjugate (0.44 mM) were added to 5 μL of PBS 1×. […] At the end of the incubation, 100 μL of aggregated AuNPs (Arg-Arg-AuNPs) were added, and a color change proportional to the trypsin concentration was observed. UV-Vis spectra were recorded 30 minutes later.

trypsin activity = assay: Detection of trypsin activity in vivo with photoacoustic imaging, gold nanorods assemblies; conditions: mouse model

COCCOCCOCCOCCOCCOCCOCCS [HS-PEG6-OCH3, 0-(2-mercaptoethyl)-O′-methyl-hexa(ethylene glycol)]
size of the aggregates (MANTA) ([1]; 2 μM HS-PEG6-OCH3, 10 minutes, from 467±120 nm): 167±112 nm
average size of the aggregates (MANTA) ([1]; 4 μM HS-PEG6-OCH3): 136±85 nm
average size of the aggregates (MANTA) ([1]; 8 μM HS-PEG6-OCH3): 124±75 nm
dissociation in complex matrices ([1]; 10 μM HS-PEG6-OCH3, plasma, urine, saliva, bile, HEK 293 cell lysates, sea water, matrix at least 90% of volume): At least 80%
aggregates dissociated ([1]; 12 μM HS-PEG6-OCH3, LSPR band identical to AuNPs-citrate): 100%
mean size (MANTA) ([1]; 12 μM HS-PEG6-OCH3 and above): 48±25 nm
dissociation of the assembly by HS-PEG6-OCH3 [2]: could not dissociate the assemblies

CGGKKEEAVLQ [A18 fragment, fragment of A18 released by Mpro cleavage]
CDC [3]: 40 µM
size of AuNP aggregates after dissociation [3]: 26±0.30 nm
surface charge after dissociation [3]: −27±0.95 mV
time for dissociation [3]: ≤ 10 min
dissociation of AgNP aggregates [4]: could dissociate AgNP aggregates

trypsin
dissociation capacity for Arg-Arg-AuNPs after trypsin digestion (HS-PEG-RRK conjugate): HS-PEG-RRK was also enhanced
dissociation capacity for Arg-Arg-AuNPs after trypsin digestion (HS-PEG-TSG conjugate): It is not impacted by the digestion by trypsin
dissociation capacity for Arg-Arg-AuNPs after trypsin digestion [5]: the dissociation capacity of HS-PEG-RRKRRK (SEQ ID NO:13) and HS-PEG-[..] (SEQ ID NO:14) was restored
dissociation capacity for Arg-Arg-AuNPs after trypsin digestion (HS-PEG-RRKRRK conjugate): the dissociation capacity of HS-PEG-RRKRRK (SEQ ID NO:13) and HS-PEG-[..] (SEQ ID NO:14) was restored

HS-PEG-RRKRRK: HS-PEG12-COOH conjugated to peptide RRKRRK via EDC/NHS; mixture of single and multiple conjugations (also: HS-PEG12 conjugated via EDC/NHS, site not given here, mixture of single and multiple conjugations)
dissociation capacity of the intact conjugate (trypsin; titrated to Arg-Arg-AuNPs, up to >100 μM, no trypsin): total quenching of the dissociation capacity
dissociation capacity after digestion with trypsin (trypsin; trypsin 10 μM, 37° C., 24 h): restored
limit of detection of trypsin (trypsin; visual detection): picomolar
photoacoustic signal (trypsin activity): increase of photoacoustic signal
